# Source: paper PMC2816717, “Active Fragments from Pro- and Antiapoptotic BCL-2 Proteins Have Distinct Membrane Behavior Reflecting Their Functional Divergence” (PLoS ONE, 2010)
# Experiment: Surface pressure change after peptide injection without lipid monolayer
# Assay type: physicochemical
# Details: peptide 0.2 µM injected into pure subphase, Hepes buffer pH 7.4, 22.5°C; defined as threshold for significant variation
# Method: A number of control experiments were carried out in order to characterize the peptide-lipid monolayer interactions at the air-buffer interface. First, we determined surface pressure-time isotherms of Bax-α5S, a strongly amphipathic and hydrophobic peptide (Table 1), in presence or absence of lipids (POPC/DOPE/CL, see Figure 2). When the peptide was injected into a pure subphase without any lipid monolayer, the corresponding surface pressure change was Δπ = 4.8 mN/m (this value was subsequently defined as a threshold level for significant surface pressure variation). When the same injection was repeated but this time using a lipid monolayer over the aqueous subphase, at an initial surface pressure of 5 mN/m, the surface pressure rose up to Δπ = 32.1 mN/m (Figure 2). […] Then, we measured compression–decompression–recompression isotherms in presence of the peptide. […] After stabilization, the peptide was injected underneath the monolayer, πmax was recorded (32.1 mN/m) and the monolayer was decompressed.
# Figure 2 Surface pressure-time isotherms for BAX-α5S with (bold line) or without (light line) POPC/DOPE/CL lipids. […] The initial velocity of surface pressure increase (Vi) was calculated as the slope of the curve (Δπ/Δt) at the time of peptide addition. […]
sequence,measurement,value
"WGRVVALFYFASKLVLKALSTK [BAX-α5S, short peptide of the first helix (α5) of the central hairpin of BAX]",surface pressure change (Δπ) without lipid monolayer,4.8 mN/m
